Results published in patent US7495018B2, “Substituted 1,3-thiazole compounds, their production and use” (Takeda Pharmaceutical Company Limited, priority 2000, dated 2009).

**Q.** Which melting point does the source give for `CSCCc1nc(-c2cccc(Cl)c2)c(-c2ccnc(N)c2)s1` here?
**A.** Its melting point is 96 to 97 °C.

**Q.** With `CSCc1nc(-c2cccc(Cl)c2)c(-c2ccnc(N)c2)s1` as the molecule, how does the melting point read?
**A.** Its melting point is 111 to 112 °C.

**Q.** For `CC(F)(F)c1nc(-c2cccc(Cl)c2)c(-c2ccnc(N)c2)s1`, which melting point is on record?
**A.** Its melting point is 131 to 132 °C.

**Q.** With `CCC(=O)Nc1cc(-c2sc(C3CCNCC3)nc2-c2cccc(Cl)c2)ccn1.Cl.Cl` as the molecule, how does the melting point read?
**A.** Its melting point is 202 to 203 °C.

**Q.** With `Cc1cccc(-c2nc(NC(=O)NCCCl)sc2-c2ccnc(C)c2)c1` as the molecule, how does the melting point read?
**A.** Its melting point is 149 to 151 °C.

**Q.** Which melting point does the source give for `CCc1nc(-c2cccc(C)c2)c(-c2ccnc(NC(=O)OC(C)(C)C)c2)s1` [Example 3, 5-[2-(tert-butoxycarbonylamino)-4-pyridyl]-2-ethyl-4-(3-methylphenyl)-1,3-thiazole] here?
**A.** Its melting point is 162 to 163 °C.

**Q.** Which melting point does the source give for `CCc1nc(-c2ccc(F)cc2)c(-c2ccnc(NC(C)=O)c2)s1` [Example 82-2, N-[4-[2-ethyl-4-(4-fluorophenyl)-1,3-thiazol-5-yl]-2-pyridyl]acetamide] here?
**A.** The melting point was 190 to 191 °C.

**Q.** For `CCc1nc(-c2cccc(C(F)(F)F)c2)c(-c2ccnc(NC(C)=O)c2)s1` [Example 82-3, N-[4-[2-ethyl-4-(3-trifluoromethylphenyl)-1,3-thiazol-5-yl]-2-pyridyl]acetamide], which melting point is on record?
**A.** The melting point was 146 to 147 °C.

**Q.** For `CCc1nc(-c2ccc(F)c(C)c2)c(-c2ccnc(NC(C)=O)c2)s1` [Example 82-4, N-[4-[2-ethyl-4-(4-fluoro-3-methylphenyl)-1,3-thiazol-5-yl]-2-pyridyl]acetamide], which melting point is on record?
**A.** The melting point was 142 to 143 °C.

**Q.** Which melting point does the source give for `CCc1nc(-c2cccc(F)c2)c(-c2ccnc(NC(C)=O)c2)s1` [Example 82-5, N-[4-[2-ethyl-4-(3-fluorophenyl)-1,3-thiazol-5-yl]-2-pyridyl]acetamide] here?
**A.** Its melting point is 141 to 142 °C.

**Q.** With `CCc1nc(-c2ccc(Cl)cc2)c(-c2ccnc(NC(C)=O)c2)s1` [Example 82-6, N-[4-[4-(4-chlorophenyl)-2-ethyl-1,3-thiazol-5-yl]-2-pyridyl]acetamide] as the molecule, how does the melting point read?
**A.** Its melting point is 190 to 191 °C.

**Q.** With `CCc1cccc(-c2nc(CC)sc2-c2ccnc(NC(C)=O)c2)c1` [Example 82-7, N-[4-[2-ethyl-4-(3-ethylphenyl)-1,3-thiazol-5-yl]-2-pyridyl]acetamide] as the molecule, how does the melting point read?
**A.** The melting point was 112 to 113 °C.

**Q.** For `CCc1nc(-c2cccc(C(C)C)c2)c(-c2ccnc(NC(C)=O)c2)s1` [Example 82-8, N-[4-[2-ethyl-4-[3-(1-methylethyl)phenyl]-1,3thiazol-5-yl]-2-pyridyl]acetamide], which melting point is on record?
**A.** The melting point was 116 to 117 °C.

**Q.** For `CCCc1cccc(-c2nc(CC)sc2-c2ccnc(NC(C)=O)c2)c1` [Example 82-9, N-[4-[2-ethyl-4-(3-propylphenyl)-1,3-thiazol-5-yl]-2-pyridyl]acetamide], which melting point is on record?
**A.** Its melting point is 121 to 122 °C.

**Q.** For `CC(=O)Nc1cc(-c2sc(C)nc2-c2cccc(C)c2)ccn1` [Example 82-10, N-[4-[2-methyl-4-(3-methylphenyl)-1,3-thiazol-5-yl]-2-pyridyl]acetamide], which melting point is on record?
**A.** Its melting point is 162 to 163 °C.

**Q.** Which melting point does the source give for `CC(=O)Nc1cc(-c2scnc2-c2cccc(C)c2)ccn1` [Example 82-11, N-[4-[4-(3-methylphenyl)-1,3-thiazol-5-yl]-2-pyridyl]acetamide] here?
**A.** The melting point was 149 to 150 °C.

**Q.** With `CSc1ccc(-c2nc(-c3cccc(C)c3)c(-c3ccnc(NC(C)=O)c3)s2)cc1` [Example 82-12, N-[4-[4-(3-methylphenyl)-2-[4-(methylthio)phenyl]-1,3-thiazol-5-yl]-2-pyridyl]acetamide] as the molecule, how does the melting point read?
**A.** The melting point was 181 to 182 °C.

**Q.** For `CCC(=O)Nc1cc(-c2sc(CC)nc2-c2ccccc2)ccn1` [Example 84-1, N-[4-(2-ethyl-4-phenyl-1,3-thiazol-5-yl)-2-pyridyl]propionamide], which melting point is on record?
**A.** The melting point was 139 to 140 °C.

**Q.** Which melting point does the source give for `CCC(=O)Nc1cc(-c2sc(CC)nc2-c2ccc(F)cc2)ccn1` [Example 84-2, N-[4-[2-ethyl-4-(4-fluorophenyl)-1,3-thiazol-5-yl]-2-pyridyl]propionamide] here?
**A.** Its melting point is 156 to 157 °C.

**Q.** Which melting point does the source give for `CCC(=O)Nc1cc(-c2sc(CC)nc2-c2cccc(C(F)(F)F)c2)ccn1` [Example 84-3, N-[4-[2-ethyl-4-(3-trifluoromethylphenyl)-1,3-thiazol-5-yl]-2-pyridyl]propionamide] here?
**A.** Its melting point is 126 to 127 °C.

**Q.** Which melting point does the source give for `CCC(=O)Nc1cc(-c2sc(CC)nc2-c2ccc(F)c(C)c2)ccn1` [Example 84-4, N-[4-[2-ethyl-4-(4-fluoro-3-methylphenyl)-1,3-thiazol-5-yl]-2-pyridyl]propionamide] here?
**A.** Its melting point is 105 to 107 °C.

**Q.** For `CCC(=O)Nc1cc(-c2sc(CC)nc2-c2cccc(F)c2)ccn1` [Example 84-5, N-[4-[2-ethyl-4-(3-fluorophenyl)-1,3-thiazol-5-yl]-2-pyridyl]propionamide], which melting point is on record?
**A.** Its melting point is 121 to 122 °C.

**Q.** Which melting point does the source give for `CCC(=O)Nc1cc(-c2sc(CC)nc2-c2ccc(Cl)cc2)ccn1` [Example 84-6, N-[4-[4-(4-chlorophenyl)-2-ethyl-1,3-thiazol-5-yl]-2-pyridyl]propionamide] here?
**A.** Its melting point is 152 to 153 °C.

**Q.** Which melting point does the source give for `CCC(=O)Nc1cc(-c2sc(CC)nc2-c2cccc(C(C)C)c2)ccn1` [Example 84-7, N-[4-[2-ethyl-4-[3-(1-methylethyl)phenyl]-1,3-thiazol-5-yl]-2-pyridyl]propionamide] here?
**A.** Its melting point is 93 to 94 °C.

**Q.** With `CCCc1cccc(-c2nc(CC)sc2-c2ccnc(NC(=O)CC)c2)c1` [Example 84-8, N-[4-[2-ethyl-4-(3-propylphenyl)-1,3-thiazol-5-yl]-2-pyridyl]propionamide] as the molecule, how does the melting point read?
**A.** Its melting point is 124 to 125 °C.

**Q.** Which melting point does the source give for `CCC(=O)Nc1cc(-c2sc(-c3ccc(SC)cc3)nc2-c2cccc(C)c2)ccn1` [Example 84-9, N-[4-[4-(3-methylphenyl)-2-[4-(methylthio)phenyl]-1,3-thiazol-5-yl]-2-pyridyl]propionamide] here?
**A.** The melting point was 171 to 172 °C.

**Q.** Which melting point does the source give for `CCCC(=O)Nc1cc(-c2sc(CC)nc2-c2cccc(Cl)c2)ccn1` [Example 86, N-[4-[4-(3-chlorophenyl)-2-ethyl-1,3-thiazol-5-yl]-2-pyridyl]butyramide] here?
**A.** The melting point was 119 to 120 °C.

**Q.** For `CCCCC(=O)Nc1cc(-c2sc(CC)nc2-c2cccc(C)c2)ccn1` [Example 87-1, N-[4-[2-ethyl-4-(3-methylphenyl)-1,3-thiazol-5-yl]-2-pyridyl]valeramide], which melting point is on record?
**A.** Its melting point is 81 to 82 °C.

**Q.** For `CCCCCC(=O)Nc1cc(-c2sc(CC)nc2-c2cccc(C)c2)ccn1` [Example 87-2, N-[4-[2-ethyl-4-(3-methylphenyl)-1,3-thiazol-5-yl]-2-pyridyl]hexanamide], which melting point is on record?
**A.** The melting point was 84 to 85 °C.

**Q.** For `CCCCC(=O)Nc1cc(-c2sc(CC)nc2-c2cccc(Cl)c2)ccn1` [Example 88-1, N-[4-[4-(3-chlorophenyl)-2-ethyl-1,3-thiazol-5-yl]-2-pyridyl]valeramide], which melting point is on record?
**A.** Its melting point is 109 to 110 °C.

**Q.** Which melting point does the source give for `CCCCCC(=O)Nc1cc(-c2sc(CC)nc2-c2cccc(Cl)c2)ccn1` [Example 88-2, N-[4-[4-(3-chlorophenyl)-2-ethyl-1,3-thiazol-5-yl]-2-pyridyl]hexanamide] here?
**A.** Its melting point is 114 to 115 °C.

**Q.** Which melting point does the source give for `CCc1nc(-c2cccc(C)c2)c(-c2ccnc(NC(=O)CC3CCCC3)c2)s1` [Example 89, N-[4-[2-ethyl-4-(3-methylphenyl)-1,3-thiazol-5-yl]-2-pyridyl]cyclopentylacetamide] here?
**A.** Its melting point is 85 to 86 °C.

**Q.** For `CCc1nc(-c2cccc(Cl)c2)c(-c2ccnc(NC(=O)CC3CCCC3)c2)s1` [Example 90-1, N-[4-[4-(3-chlorophenyl)-2-ethyl-1,3-thiazol-5-yl]-2-pyridyl]cyclopentylacetamide], which melting point is on record?
**A.** The melting point was 121 to 122 °C.

**Q.** Which melting point does the source give for `CCc1nc(-c2ccc(Cl)cc2)c(-c2ccnc(NC(=O)CC3CCCC3)c2)s1` [Example 90-2, N-[4-[4-(4-chlorophenyl)-2-ethyl-1,3-thiazol-5-yl]-2-pyridyl]cyclopentylacetamide] here?
**A.** Its melting point is 149 to 150 °C.

**Q.** With `CC(=O)Nc1cc(-c2sc(C3CCN(C(C)=O)CC3)nc2-c2cccc(Cl)c2)ccn1` [Example 93, N-[4-[2-(1-acetylpiperidin-4-yl)-4-(3-chlorophenyl)-1,3-thiazol-5-yl]-2-pyridyl]acetamide] as the molecule, how does the melting point read?
**A.** The melting point was 160 to 161 °C.

**Q.** With `CCC(=O)Nc1cc(-c2sc(C3CCN(C(C)=O)CC3)nc2-c2cccc(Cl)c2)ccn1` [Example 94, N-[4-[2-(1-acetylpiperidin-4-yl)-4-(3-chlorophenyl)-1,3-thiazol-5-yl]-2-pyridyl]propionamide] as the molecule, how does the melting point read?
**A.** Its melting point is 174 to 175 °C.

**Q.** For `CC(=O)Nc1cc(-c2sc(-c3ccc(S(C)(=O)=O)cc3)nc2-c2cccc(C)c2)ccn1` [Example 98-1, N-[4-[4-(3-methylphenyl)-2-(4-methylsulfonylphenyl)-1,3-thiazol-5-yl]-2-pyridyl]acetamide], which melting point is on record?
**A.** Its melting point is 222 to 223 °C.

**Q.** For `CCC(=O)Nc1cc(-c2sc(-c3ccc(S(C)(=O)=O)cc3)nc2-c2cccc(C)c2)ccn1` [Example 98-2, N-[4-[4-(3-methylphenyl)-2-(4-methylsulfonylphenyl)-1,3-thiazol-5-yl]-2-pyridyl]propionamide], which melting point is on record?
**A.** Its melting point is 238 to 239 °C.

**Q.** For `CSCCc1nc(-c2cccc(C)c2)c(-c2ccnc(N)c2)s1` [Example 99-1, 4-[4-(3-methylphenyl)-2-[2-(methylthio)ethyl]-1,3-thiazol-5-yl]-2-pyridylamine], which melting point is on record?
**A.** The melting point was 98 to 99 °C.

**Q.** For `Cc1cccc(-c2nc(C(C)OC(=O)c3ccccc3)sc2-c2ccnc(N)c2)c1` (centres unmarked) [Example 99-2, 1-[5-(2-amino-4-pyridyl)-4-(3-methylphenyl)-1,3thiazol-2-yl]ethyl benzoate], which melting point is on record?
**A.** Its melting point is 89 to 91 °C.

**Q.** For `CCC(=O)Nc1cc(-c2sc(CCSC)nc2-c2cccc(C)c2)ccn1` [Example 102-1, N-[4-[4-(3-methylphenyl)-2-[2-(methylthio)ethyl]-1,3-thiazol-5-yl]-2-pyridyl]propionamide], which melting point is on record?
**A.** The melting point was 85 to 86 °C.

**Q.** Which melting point does the source give for `CCC(=O)Nc1cc(-c2sc(CCSC)nc2-c2cccc(Cl)c2)ccn1` [Example 102-2, N-[4-[4-(3-chlorophenyl)-2-[2-(methylthio)ethyl]-1,3-thiazol-5-yl]-2-pyridyl]propionamide] here?
**A.** Its melting point is 91 to 92 °C.

**Q.** Which melting point does the source give for `CCC(=O)Nc1cc(-c2sc(CSC)nc2-c2cccc(Cl)c2)ccn1` [Example 102-3, N-[4-[4-(3-chlorophenyl)-2-(methylthio)methyl-1,3-thiazol-5-yl]-2-pyridyl]propionamide] here?
**A.** The melting point was 118 to 119 °C.

**Q.** With `CCC(=O)Nc1cc(-c2sc(C(C)(F)F)nc2-c2cccc(Cl)c2)ccn1` [Example 102-4, N-[4-[4-(3-chlorophenyl)-2-(1,1-difluoroethyl)-1,3-thiazol-5-yl]-2-pyridyl]propionamide] as the molecule, how does the melting point read?
**A.** The melting point was 141 to 142 °C.
